Data taken from US11994512B2, “Single-cell genomic methods to generate ex vivo cell systems that recapitulate in vivo biology with improved fidelity” (Massachusetts Institute of Technology, priority 2018, dated 2024).

Assays:
Type in all cases: cell-based, C57BL/6 mice
[1] = system: in vitro PCs (CD24+ & LYZ+) in ENR+CD culture; NUPR1; assay: Trifluoperazine (NUPR1 inhibition) treatment of ENR+CD cultures, flow cytometry of viability and CD24/LYZ populations
Description: Lastly, Applicants sought to use this physiologically-improved in vitro PC system (ENR+CD) to identify novel factors potentially supportive of PC survival or differentiation. […] Intriguingly, Nupr1 is a stress-response gene, known to promote cellular survival and senescence through mediation of autophagy, and has primarily been studied in the context of cancer. Autophagy and stress response have repeatedly been implicated through GWAS study in PCs in IBD, however Nupr1 has only ever been reported in a single IBD GWAS study, and its role in PC biology has not been formally investigated. With the model, Applicants sought to test the role of NUPR1 on in vitro PC survival, through the small molecule inhibition of NUPR1 with trifluoperazine (TFP).
Flow cytometry. Cell clusters were isolated from Matrigel as previously described and resuspended in TrypLE Express at 37° C. for 20 mins to dissociate into single cells. Dissociated cells were centrifuged at 300 g for 3 mins at 4° C. The pellet was resuspended in FACS buffer (1% FBS in PBS, Thermo Fisher Scientific) and strained into a 5-mL filter cap tube using a 40 μm filter. The cell suspension was transferred to a flow prep microcentrifuge tube and centrifuged at 300 rcf for 3 min. Cell pellets were resuspended in a Zombie violet dye (BioLegend 100X) in FACS buffer for viability staining followed with 1% PFA fixation for 20 minutes at RT. Pellets were permeabilized for 20 minutes at RT with staining buffer (0.5% Tween-20 in FACS buffer, Sigma), and co-stained with rabbit anti-human FITC-Lyz (100X) and rat anti-mouse APC-CD24 (100X) antibodies diluted in staining buffer for 45 min at RT. Flow cytometry was performed using a BD LSR II HTS (BD; Koch Institute Flow Cytometry Core at MIT). Initial settings and laser voltages were determined with unstained, single channel stains or secondary-only controls (data not shown). Flow cytometry data was analyzed using FlowJo v10.7 software.

[2] = system: organoid single cells (clusters ENR, ENR+CV, ENR+CD); assay: Seq-Well single-cell RNA-sequencing and transcriptional scoring of ENR+CV, ENR and ENR+CD organoids; settings: p<2.2×10^−16
Description: Applicants performed scRNA-seq using the Seq-Well platform on cells from ENR+CD and the precursor ENR+CV conditions to analyze alongside conventional ENR organoids. To ensure experimental robustness, Applicants assessed quality metrics for number of genes, unique molecular identifiers (UMIs), mitochondrial genes, and ribosomal genes by cluster, all of which fell within expectation (FIG. 11).
To assess sub-population structure and provide a more robust measure of composition beyond canonical marker genes, Applicants performed unsupervised KNN graph-based clustering on the captured cells (FIG. 4C,D and Table 1 for full gene lists), distinguishing four clusters in each treatment condition. Applicants then scored individual clusters according to the amount of the transcriptome within each cell dedicated to synthesizing the respective enriched proteins from the bulk proteome data.
To confirm and extend the findings of pathway-based modulation, Applicants scored clusters for enrichment or depletion of canonical growth factor-induced pathways.

[3] = system: LYZ secretion by Paneth cells in organoid culture; assay: Lysozyme functional secretion assay (EnzChek), basal and CCh-stimulated
Description: In addition to the morphological, proteomic, and transcriptional characterization of PC phenotype in ENR+CD and ENR, Applicants sought to measure physiological function by assessing stimulant-induced secretion of antimicrobials. Applicants assessed the dynamics of LYZ accumulation in media supernatant of cultures following media wash, basally and after stimulation with carbachol (CCh), a cholinergic agonist known to induce PC secretion. […] The observed PC secretion in response to CCh is consistent with observations made in ex vivo crypts, though over appreciably longer time scales, likely due to the added diffusion barrier of the organoid structure and matrigel. Applicants next identified how LYZ secretion changes over the course of differentiation. Beginning with an ISC-enriched population, Applicants assayed for secreted LYZ in cell culture supernatants every two days for six days of ENR+CD culture, following a 24-hour stimulation with CCh or without (basal collection/non-stimulated).
Lysozyme functional secretion assay. Lysozyme secretion was measured using a Lysozyme Assay Kit (EnzChek; Thermo Fisher). Briefly, cells suspended in Matrigel in 24-well plates were washed (basal culture media 3X) and either supplemented with 500 μL of basal culture media or basal culture media plus 10 μM Carbachol (CCh, Sigma Aldrich) for 24 hours at 37° C. Following stimulation, culture plates were spun at high speed (>2000 g) for 5 min at RT to pellet cell debris and loose Matrigel. 25 μL of conditioned supernatant was removed from the top of each well and quantified per manufacturer's protocol.

[4] = system: intracellular proteome of ENR+CD and ENR organoids; assay: LC-MS/MS TMT proteomics of ENR+CD versus ENR organoids; settings: for change: up = enriched in ENR+CD, down = enriched in ENR, FDR<0.05 and log fold change cut-off
Description: Because PCs are highly secretory, protein-rich cells, Applicants sought to assess the total intracellular proteome between conditions through liquid chromatography mass spectrometry (LC-MS/MS)-based proteomics. Applicants quantified relative protein abundance across eight samples using isobaric mass tag labeling from four ENR and four ENR+CD samples (M1-1 through M2-2, first digit denotes biological donor, second digit denotes technical replicate) (FIG. 3A). Samples were processed and analyzed in a single 10-plex by LC-MS/MS (FIG. 9A).
To affirm the reproducibility of the associated proteins in the ENR+CD-enriched proteome, Applicants performed relative quantification within differentiation sets.
Mass spectrometry proteomics sample preparation, sequencing, and quantification. Organoid cell pellets were isolated from Matrigel with mechanical dissociation and washed (cold PBS 5X) to remove residual extracellular protein. Proteins were extracted from cell pellets with 8 M urea (Sigma), reduced with 5 mM DTT (Thermo Fisher Pierce) for 45 minutes, alkylated with 10 mM IAA (Sigma) for 45 minutes in the dark, and double digested with both Lysyl Endopeptidase “LysC” (Wako) and trypsin (Promega) overnight at RT. A small aliquot of cellular lysate was removed from each sample for protein quantification via the Pierce™ BCA Protein Assay Kit (Pierce). After proteolytic digestion, the samples were quenched using formic acid to a final concentration of 1.0% and subsequently desalted on 10 mg OASIS HLB solid phase columns (Waters).
The peptides were labeled with TMT-10 isobaric mass tag reagent according to manufacturer's instructions (ThermoFisher Scientific). The peptides were labeled at a 1:8 ratio of peptide to TMT reagent, followed by 1-hour incubation at RT with bench top shaking at 850 rpm. After incubation, a […] of labeled tryptic peptide was removed from each labeled condition, desalted with C18 stage tips, and analyzed via LC-MS/MS using a Thermo Fisher Q Exactive Plus Hybrid Mass Spectrometer (QE-Plus) coupled to a Thermo Fisher EASY-nLC 1000 liquid chromatograph to ensure isobaric label incorporation >95%. An additional 1.0 μg of labeled tryptic peptide was removed from each channel, mixed together, desalted on a C18 stage tip, and analyzed via LC-MS to ensure equal relative protein loads. During these quality control steps, the labeled peptides were stored, unquenched at −80° C.

[5] = doses above luM, in combination with ENR+CD for six days
[6] = protein abundance, ENR+CD versus ENR organoids, aggregate of the four sample pairs
[7] = protein abundance, ENR+CD versus ENR organoids, replicate M1-1, log2 ratio
[8] = protein abundance, ENR+CD versus ENR organoids, replicate M1-2, log2 ratio
[9] = protein abundance, ENR+CD versus ENR organoids, replicate M2-1, log2 ratio
[10] = protein abundance, ENR+CD versus ENR organoids, replicate M2-2, log2 ratio
[11] = ENR+CD versus ENR organoids, sample pairs in aggregate (n=4, 2 technical replicates from two biological donors)
[12] = protein abundance ratio ENR+CD versus ENR organoids, sample pair M1-1, LC-MS/MS TMT proteomics
[13] = protein abundance ratio ENR+CD versus ENR organoids, sample pair M1-2, LC-MS/MS TMT proteomics
[14] = protein abundance ratio ENR+CD versus ENR organoids, sample pair M2-1, LC-MS/MS TMT proteomics
[15] = protein abundance ratio ENR+CD versus ENR organoids, sample pair M2-2, LC-MS/MS TMT proteomics

Row | Molecule | Average logFC [4, 6] | M1-1 Log2 Median Normalized [4, 7] | M1-2 Log2 Median Normalized [4, 8] | M2-1 Log2 Median Normalized [4, 9] | M2-2 Log2 Median Normalized [4, 10] | change [4] | also measured
1 | CN1CCN(CCCN2c3ccccc3Sc3ccc(C(F)(F)F)cc32)CC1 [TFP, trifluoperazine] |  |  |  |  |  |  | cellular viability ([1]; added for two days following a six-day course of ENR+CD): profound, but not total, decline in cellular viability; toxicity, preference to PCs (CD24+ & LYZ+) and PC-like populations ([1]; concurrent with 6-day ENR+CD differentiation (FIG. 7C)): dose-dependent toxicity; cell death during differentiation [1, 5]: near total cell death; identity of surviving cells [1, 5]: primarily non-Paneth; selectivity of toxicity between cell populations ([1]; two days following six-day ENR+CD): selectively more toxic to PC and PC-progenitor populations relative to non-PC populations; toxicity, preference to PCs (CD24+ & LYZ+) and PC-like populations ([1]; two-day treatment following 6-day ENR+CD differentiation (FIG. 7D)): dose-dependent toxicity
2 | Cc1c[nH]c(-c2cnc(NCCNc3ccc(C#N)cn3)nc2-c2ccc(Cl)cc2Cl)n1 [CHIR, CHIR99021] |  |  |  |  |  |  | Wnt target gene enrichment, effect size ([2]; all ENR+CD clusters vs ENR-4): > 0.999
3 | C[C@H](NC(=O)Cc1cc(F)cc(F)c1)C(=O)N[C@H](C(=O)OC(C)(C)C)c1ccccc1 [DAPT] |  |  |  |  |  |  | Notch target gene depletion, effect size ([2]; ENR+CD-4 vs ENR-4): −0.658
4 | C[N+](C)(C)CCOC(N)=O [CCh, carbachol] |  |  |  |  |  |  | plateau of LYZ accumulation in supernatant ([3]; 10 μM, six day ENR+CD culture): plateaued around six hours post-wash; LYZ accumulation in media supernatant after stimulation ([3]; 10 μM, six day ENR+CD culture, post-wash): rapid accumulation of LYZ within two hours; functional LYZ secretion (stimulated relative to basal) over differentiation ([3]; 24-hour stimulation, days four and six of ENR+CD culture): Notable increases in functional secretion
5 | P07310 | −2.279 | −1.418 | −3.14 | −2.0165 | −2.541 | down | 
6 | O70472 | 1.172 | 1.419 | 0.87 | 1.3875 | 1.011 | up | 
7 | P02802 | −1.725 | −2.19 | −2.322 | −1.3715 | −1.016 | down | 
8 | Q8R0T2 |  |  |  |  |  | down | Average logFC [4, 11]: −1.493; M1-1 Log2 Median Normalized [4, 12]: −1.662; M1-2 Log2 Median Normalized [4, 13]: −0.647; M2-1 Log2 Median Normalized [4, 14]: −0.8365; M2-2 Log2 Median Normalized [4, 15]: −2.825
9 | P56382 (MVAYWRQAGLSYIRFSQICAKAVRDALKTEFKANAEKTSGSSIKIVKVSKKE; full-length; UniProt P56382 1-52, looked up) | −2.387 | −1.051 | −3.179 | −1.3955 | −3.924 | down | 
10 | P84102 (MTRGNQRELARQKNMKKQSDSVKGKRRDDGLSAAARKQRDSEIMQQKQKKANEKKEEPK; full-length; UniProt P84102 1-59, looked up) | 1.286 | 1.517 | 0.63 | 2.2205 | 0.775 | up | 
11 | Q80SU7 |  |  |  |  |  | down | Average logFC [4, 11]: −1.224; M1-1 Log2 Median Normalized [4, 12]: −1.279; M1-2 Log2 Median Normalized [4, 13]: −0.758; M2-1 Log2 Median Normalized [4, 14]: −1.2235; M2-2 Log2 Median Normalized [4, 15]: −1.338
12 | P18894 | −1.376 | −1.222 | −1.706 | −1.8305 | −0.745 | down | 
13 | P02798 | −2.904 | −2.904 | −2.907 | −2.2505 | −3.047 | down | 
14 | P47968 | −1.292 | −0.958 | −1.223 | −1.2935 | −1.827 | down | 
